The supplement of paper PMC11061612

What was measured:
[1] = test system: ALL-PO (B-Lymphoblastic Leukemia); test: Bliss excess, mean over the matrix (fraction); higher = more synergy
Procedure, shortened: (§1)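 Bliss excess equals the observed combination effect minus the expected value EA + EB − EA·EB, where EA and EB are the effects of each agent alone. Combination Emax is the second-highest inhibition within the matrix. Inhibition was scaled from CellTiter-Glo 2.0 luminescence, with 0 set by vehicle wells and 1 by blank wells, after 72 hours of two-drug dosing of cells plated in 1536-well plates.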

CAL-72 (Osteosarcoma) = test: as above
Procedure, shortened: as §1

EW-11 (Ewing's Sarcoma) = test: as above
Procedure, shortened: as §1

[2] = test system: HH (T-Cell Non-Hodgkin's Lymphoma); test: as above
Procedure, shortened: as §1

[3] = test system: LCLC-97TM1 (Non-Small Cell Lung Carcinoma); test: as above
Procedure, shortened: as §1

LOXIMVI (Melanoma) = test: as above
Procedure, shortened: as §1

[4] = test system: LS-123 (Colorectal Carcinoma); test: as above
Procedure, shortened: as §1

[5] = test system: NCI-H209 (Small Cell Lung Carcinoma); test: as above
Procedure, shortened: as §1

[6] = test system: NCI-H720 (Other Solid Carcinomas); test: as above
Procedure, shortened: as §1

[7] = test system: OVCAR-5 (Ovarian Carcinoma); test: as above
Procedure, shortened: as §1

[8] = test system: SW1573 (Lung Adenocarcinoma); test: as above
Procedure, shortened: as §1

[9] = test system: NCI-H720 (Other Solid Carcinomas); test: combination Emax (second highest fraction inhibited in the dose matrix, 72 h); higher = more inhibition; extreme values may be limits of the assay
Procedure, shortened: as §1

Row | Structure (SMILES) | Bliss excess [1] | Bliss excess (CAL-72 (Osteosarcoma)) | Bliss excess (EW-11 (Ewing's Sarcoma)) | Bliss excess [2] | Bliss excess [3] | Bliss excess (LOXIMVI (Melanoma)) | Bliss excess [4] | Bliss excess [5] | Bliss excess [6] | Bliss excess [7] | Bliss excess [8] | combination Emax [9]
1 | C[C@@H]1COCCN1c1cc(C2([S@](C)(=N)=O)CC2)nc(-c2ccnc3[nH]ccc23)n1 [AZD6738] + O=C(c1cc(Cc2n[nH]c(=O)c3ccccc23)ccc1F)N1CCN(C(=O)C2CC2)CC1 [Olaparib] (first compound max 10 µM, 7x7, partner max 10 µM) | 0.018 | -0.0183 | -0.014 | -0.0082 | -0.0539 | -0.0956 | 0.0192 | -0.0599 | -0.0398 | -0.0994 | -0.0044 | 0.687
2 | COc1cccc2c1C(=O)c1c(O)c3c(c(O)c1C2=O)C[C@@](O)(C(=O)CO)C[C@@H]3O[C@H]1C[C@H](N)[C@H](O)[C@H](C)O1 [Doxorubicin] + Cc1cc2ncnn2cc1Nc1ncc2c(n1)n(C1CCOCC1)c(=O)n2C [AZD7648] (first compound max 1 µM, 7x7, partner max 10 µM) | 0.143 | -0.0164 | 0.0408 | -0.0305 | 0.0332 | 0.0582 | 0.035 | 0.129 | 0.0281 | -0.0058 | -0.0042 | 0.478
3 | COc1cccc(OCCCN)c1-c1cc(Nc2cnc(C#N)cn2)n[nH]1 [Prexasertib] + C=CCn1c(=O)c2cnc(Nc3ccc(N4CCN(C)CC4)cc3)nc2n1-c1cccc(C(C)(C)O)n1 [AZD1775] (first compound max 1 µM, partner max 1 µM) | 0.0744 | 0.0055 | -0.0815 | 0.0872 | 0.057 | 0.0467 | -0.0296 | 0.0444 | 0.107 | 0.044 | 0.0456 | 0.692
4 | COc1cccc(OCCCN)c1-c1cc(Nc2cnc(C#N)cn2)n[nH]1 [Prexasertib] + CCc1c2c(nc3ccc(O)cc13)-c1cc3c(c(=O)n1C2)COC(=O)[C@]3(O)CC [SN-38] (first compound max 1 µM, 7x7, partner max 0.3 µM) | -0.0336 | -0.0158 | -0.153 | 0.0727 | 0.0863 | -0.0455 | 0.0186 | 0.0053 | 0.197 | -0.0162 | -0.0144 | 0.886
5 | COc1cccc(OCCCN)c1-c1cc(Nc2cnc(C#N)cn2)n[nH]1 [Prexasertib] + CN(C)CCCOc1ccc(-c2ccc3ncc4c(c3c2)n(C2CCOCC2)c(=O)n4C)cn1 [AZD0156] (first compound max 1 µM, 7x7, partner max 1 µM) | 0.0036 | -0.0922 | -0.0705 | -0.0001 | -0.0439 | 0.0398 | -0.0387 | 0.0016 | 0.0149 | -0.0273 | -0.0129 | 0.562
6 | COc1cccc(OCCCN)c1-c1cc(Nc2cnc(C#N)cn2)n[nH]1 [Prexasertib] + C[C@@H]1COCCN1C2=NC(=NC(=C2)C3(CC3)[S@](=N)(=O)C)C4=C5C=CNC5=NC=C4 [AZD6738] (first compound max 1 µM, 7x7, partner max 10 µM) | 0.0584 | -0.0244 | 0.0197 | -0.0053 | -0.0351 | -0.0165 | -0.0242 | -0.0214 | -0.0325 | 0.0185 | -0.0066 | 0.697
7 | COc1cccc(OCCCN)c1-c1cc(Nc2cnc(C#N)cn2)n[nH]1 [Prexasertib] + Cc1cc2ncnn2cc1Nc1ncc2c(n1)n(C1CCOCC1)c(=O)n2C [AZD7648] (first compound max 1 µM, 7x7, partner max 10 µM) | 0.0031 | -0.112 | -0.0303 | -0.021 | -0.0411 | 0.0017 | -0.0141 | 0 | 0.0515 | -0.0016 | -0.0225 | 0.746
8 | COc1cccc(OCCCN)c1-c1cc(Nc2cnc(C#N)cn2)n[nH]1 [Prexasertib] + O=C(c1cc(Cc2n[nH]c(=O)c3ccccc23)ccc1F)N1CCN(C(=O)C2CC2)CC1 [Olaparib] (first compound max 1 µM, 7x7, partner max 10 µM) | -0.0194 | -0.135 | -0.0849 | -0.121 | -0.0381 | -0.0372 | -0.0312 | -0.0442 | 0.0208 | -0.17 | 0.001 | 0.64
9 | CCc1c2c(nc3ccc(O)cc13)-c1cc3c(c(=O)n1C2)COC(=O)[C@]3(O)CC [SN-38] + CN(C)CCCOc1ccc(-c2ccc3ncc4c(c3c2)n(C2CCOCC2)c(=O)n4C)cn1 [AZD0156] (first compound max 0.3 µM, 7x7, partner max 1 µM) | 0.0685 | 0.0114 | -0.012 | -0.0452 | -0.0059 | 0.0017 | -0.0648 | -0.0073 | 0.035 | -0.0235 | 0.0139 | 0.397
10 | CCc1c2c(nc3ccc(O)cc13)-c1cc3c(c(=O)n1C2)COC(=O)[C@]3(O)CC [SN-38] + O=C(c1cc(Cc2n[nH]c(=O)c3ccccc23)ccc1F)N1CCN(C(=O)C2CC2)CC1 [Olaparib] (first compound max 0.3 µM, 7x7, partner max 10 µM) | 0.0576 | 0.113 | -0.0291 | -0.0275 |  | 0.0214 | 0.0301 |  | -0.0027 | -0.0161 |  | 0.333
